Laboratory results from the supplement of paper PMC10307832.

Each cell line was assayed with CCOC1=CC=CC=C1N=NC2=C(NN(C2=O)C3=NC(=CS3)C4=CC=CC=C4)C [BAM7] + CS(=O)(=O)CCNCc1ccc(-c2ccc3ncnc(Nc4ccc(OCc5cccc(F)c5)c(Cl)c4)c3c2)o1 [Lapatinib] (partner 2 µM) (assay: relative viability (nuclei count vs DMSO), 5 days (fraction); higher = more cells survive). Details: first compound 0.5 µM.
Method in brief: (§1)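 Lung cancer cell lines were seeded in 1536-well plates and dosed by pin tool the next day, with either a single drug or a fixed anchor-drug dose combined with five library-drug doses (not always all listed) spaced in √10 steps. Five days later, one step fixed the cells and stained their nuclei (final 0.05% Triton X-100, 1% formaldehyde, 1 ug/ml Hoechst), and nuclei were counted on 4× images. Relative viability is the nuclei count in treated wells divided by the count in vehicle wells, and each value is the median of duplicate plates.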

Cell Line | relative viability
RERF-LC-KJ | 0.868
NCI-H358 | 0.46
NCI-H650 | 0.787
PC-3 [JPC-3] | 0.425

Same assay, conditions: first compound 5 µM

Cell Line | relative viability
RERF-LC-KJ | 0.815
ABC-1 | 1.24
NCI-H358 | 0.522
NCI-H650 | 0.92
PC-3 [JPC-3] | 0.472

Same assay, conditions: first compound 15.81 µM

Cell Line | relative viability
RERF-LC-KJ | 0.802
ABC-1 | 1.16
NCI-H358 | 0.479
NCI-H650 | 0.842
PC-3 [JPC-3] | 0.427

Same assay, conditions: first compound 50 µM

Cell Line | relative viability
RERF-LC-KJ | 0.791
ABC-1 | 1.36
NCI-H358 | 0.568
NCI-H650 | 1.13
PC-3 [JPC-3] | 0.412

The cell lines below were run with CCOC1=CC=CC=C1N=NC2=C(NN(C2=O)C3=NC(=CS3)C4=CC=CC=C4)C [BAM7] + C[C@@H](Oc1cc(-c2cnn(C3CCNCC3)c2)cnc1N)c1c(Cl)ccc(F)c1Cl [Crizotinib] (partner 1 µM) in the same assay as above. Details: first compound 0.5 µM.
Method in brief: as §1

Cell Line | relative viability
RERF-LC-KJ | 0.834
ABC-1 | 1.49
NCI-H358 | 0.76
NCI-H650 | 0.649
PC-3 [JPC-3] | 0.913

Same assay, conditions: first compound 5 µM

Cell Line | relative viability
RERF-LC-KJ | 0.786
ABC-1 | 1.34
NCI-H358 | 0.589
NCI-H650 | 0.764
PC-3 [JPC-3] | 0.942

Same assay, conditions: first compound 15.81 µM

Cell Line | relative viability
RERF-LC-KJ | 0.78
ABC-1 | 0.987
NCI-H358 | 0.522
NCI-H650 | 0.656
PC-3 [JPC-3] | 0.784

Same assay, conditions: first compound 50 µM

Cell Line | relative viability
RERF-LC-KJ | 0.793
ABC-1 | 1.21
NCI-H358 | 0.52
NCI-H650 | 0.69
PC-3 [JPC-3] | 0.827

What follows are cell lines tested with CCOC1=CC=CC=C1N=NC2=C(NN(C2=O)C3=NC(=CS3)C4=CC=CC=C4)C [BAM7] + C[C@]1(O)C[C@@H](c2nc(-c3ccc4ccc(-c5ccccc5)nc4c3)c3c(N)nccn32)C1 [Linsitinib] (partner 1 µM) in the same assay as above. Details: first compound 0.5 µM.
Method in brief: as §1

Cell Line | relative viability
RERF-LC-KJ | 0.862
ABC-1 | 0.883
NCI-H358 | 0.782
NCI-H650 | 0.867
PC-3 [JPC-3] | 0.905

Same assay, conditions: first compound 5 µM

Cell Line | relative viability
RERF-LC-KJ | 0.775
ABC-1 | 1.18
NCI-H358 | 0.878
NCI-H650 | 0.95
PC-3 [JPC-3] | 0.966

Same assay, conditions: first compound 15.81 µM

Cell Line | relative viability
RERF-LC-KJ | 0.833
ABC-1 | 0.815
NCI-H358 | 0.704
NCI-H650 | 0.825
PC-3 [JPC-3] | 0.868

Same assay, conditions: first compound 50 µM

Cell Line | relative viability
RERF-LC-KJ | 0.929
ABC-1 | 0.758
NCI-H358 | 0.787
NCI-H650 | 1.19
PC-3 [JPC-3] | 0.835

What follows are cell lines tested with CCn1c(-c2nonc2N)nc2c(C#CC(C)(C)O)ncc(OC[C@H]3CCCNC3)c21 + COc1cccc2cc(-c3nc([C@H]4CC[C@H](C(=O)O)CC4)n4ncnc(N)c34)[nH]c12 [OSI-027] (partner 0.5 µM) in the same assay as above. Details: first compound 0.01 µM.
Method in brief: as §1

Cell Line | relative viability
RERF-LC-KJ | 0.497
ABC-1 | 0.394
NCI-H358 | 0.723
NCI-H650 | 0.412
PC-3 [JPC-3] | 0.786

Same assay, conditions: first compound 0.03162 µM

Cell Line | relative viability
RERF-LC-KJ | 0.564
ABC-1 | 0.36
NCI-H358 | 0.822
NCI-H650 | 0.39
PC-3 [JPC-3] | 0.699

Same assay, conditions: first compound 0.1 µM

Cell Line | relative viability
RERF-LC-KJ | 0.526
ABC-1 | 0.394
NCI-H358 | 0.692
NCI-H650 | 0.495
PC-3 [JPC-3] | 0.808

Same assay, conditions: first compound 0.3162 µM

Cell Line | relative viability
RERF-LC-KJ | 0.446
ABC-1 | 0.31
NCI-H358 | 0.445
NCI-H650 | 0.463
PC-3 [JPC-3] | 0.736

Same assay, conditions: first compound 1 µM

Cell Line | relative viability
RERF-LC-KJ | 0.395
ABC-1 | 0.304
NCI-H358 | 0.373
NCI-H650 | 0.441
PC-3 [JPC-3] | 0.682
